According to patent US20220387404A1, “TREATMENT OF CANCER USING A COMBINATION COMPRISING MULTI-TYROSINE KINASE INHIBITOR AND IMMUNE CHECKPOINT INHIBITOR” (BEIGENE, LTD., priority 2019, published 2022):

What was measured:
[1] = system: MC38 (colon adenocarcinoma) cells; assay: Combination efficacy in MC38 syngeneic mouse model; assay type: in vivo, BALB/C mice; settings: muCh15mt 3 mg/kg QW i.p., Compound 1 5 mg/kg QD P.O.
Protocol: Female BALB/C mice were s.c implanted with 1×10^6 MC38 (colon adenocarcinoma) cells per 150 μl PBS in the right flank. After inoculation, mice were randomized into 4 groups with 15 animals in each group. The mice were treated with vehicle (PEG400/0.1N HCL in saline, 40/60), muCh15mt, Compound 1, and the combination treatment of much15mt and Compound 1, respectively. MuCh15mt was given at 3 mg/kg once per week (QW) by intraperitoneal (i.p.) injection, and Compound 1 was administered at 5 mg/kg once per day (QD) for 25 days by oral gavage (P.O.). Tumor volumes were determined twice weekly in two dimensions using a caliper, and were expressed in mm^3 using the formula: V=0.5(a×b^2) where a and b are the long and short diameters of the tumor, respectively.
Data are presented as mean tumor volume+standard error of the mean (SEM). Tumor growth inhihition (TGI) is calculated using the following formula:
(§1) treated t=treated tumor volume at time t treated t0=treated tumor volume at time 0 placebo t=placebo tumor volume at time t placebo t0=placebo tumor volume at time 0

[2] = system: A20 (B cell lymphoma) cells; assay: Combination efficacy in A20 syngeneic mouse model; assay type: in vivo, BALB/C mice; settings: muCh15mt 3 mg/kg QW i.p., Compound 1 5 mg/kg QD P.O.
Protocol: Female BALB/C mice were s.c implanted with 1×10^5 A20 (B cell lymphoma) cells per 150 μl PBS in the right flank. After inoculation, tumor volumes were determined twice weekly in two dimensions using a caliper, and were expressed in mm^3 using the formula: V=0.5(a×b^2) where a and b are the long and short diameters of the tumor, respectively. When tumor volume reached approximately 100 mm^3, mice were randomized into 4 groups with 12 animals in each group according to tumor volume. The mice were then treated with vehicle (PEG400/0.1N HCL in saline, 40/60), muCh15mt, Compound 1, and the combination, respectively. MuCh15mt was given at 3 mg/kg once per week (QW) by intraperitoneal (i.p.) injection, and Compound 1 was administered at 5 mg/kg once per day (QD) by oral gavage (P.O.).
Data are presented as mean tumor volume ±standard error of the mean (SEM). Tumor growth inhibition (TGI) is calculated using the following formula:
as §1

[3] = system: A431 (epidermal carcinoma) cells; assay: Combination efficacy in A431 allogeneic mouse model (A431 cells + human PBMC, s.c.); assay type: in vivo, Nod-Scid mice; settings: Mab-1 10 mg/kg QW i.p., Compound 1 1.5 mg/kg QD P.O.
Protocol: Female Nod-Scid mice were pretreated with cyclophosphamide (in saline, 100 mg/kg intraperitoneal, QD×2) and disulfiram (in 0.8% Tween-80 in saline 125 mg/kg oral gavage, 2 hr after the dose of cyclophosphamide). Two days later, mice with higher body weight were subcutaneously implanted with 2.5×10^6 A431 (epidermal carcinoma) cells and 5×10^6 freshly isolated peripheral blood mononuclear cells (PBMC) on the right flank. After inoculation, mice were randomly assigned into 4 groups with 10 animals in each group according to body weight. Then mice were treated with vehicle (PEG400/0.1N HCL in saline, 40/60), Mab-1, Compound 1, and combination of Mab-1 and Compound 1, respectively. Mab-1 was given at 10 mg/kg once per week (QW) by intraperitoneal (i.p.) injection, and Compound 1 was administered at 1.5 mg/kg once per day (QD) by oral gavage (P.O.). Tumor volume was determined twice weekly in two dimensions using a caliper, and expressed in mm^3 using the formula: V=0.5(a×b^2), where a and b are the long and short diameters of the tumor, respectively.
Data are presented as mean tumor volume±standard error of the mean (SEM). Tumor growth inhibition (TGI) is calculated using the following formula:
treated t=treated tumor volume at time t;treated t0=treated tumor volume at time 0; placebo t=placebo tumor volume at time t; placebo t0=placebo tumor volume at time 0.

[4] = system: CT26WT (colon carcinoma) cells; assay: Combination efficacy in CT26WT syngeneic mouse model; assay type: in vivo, BALB/c mice; settings: muCh15mt 3 mg/kg QW i.p., Compound 1 5 mg/kg QD oral gavage
Protocol: Female BALB/c mice were s.c implanted with 2×10^5 CT26WT (colon carcinoma) cells per 150 ul PBS in the right flank. After inoculation, mice were randomized into 4 groups with 12 animals in each group. The mice were treated with vehicle (PEG400/0.1N HCL in saline, 40/60), muCh15mt, Compound 1, and the combination of muCh15mt and Compound 1, respectively. MuCh15mt was given at 3 mg/kg once per week (QW) by intraperitoneal (i.p.) injection, and Compound 1 was administered at 5 mg/kg once per day (QD) by oral gavage. Tumor volume was determined twice weekly in two dimensions using a caliper, and was expressed in mm^3 using the formula: V=0.5(a×b^2) where a and b are the long and short diameters of the tumor, respectively. Data are presented as mean tumor volume 1 standard error of the mean (SEM). Tumor growth inhibition (TGI) is calculated using the following formula:
as §1

Compound: COCCNCc1ccc(-c2cc3nccc(Oc4ccc(NC(=O)C5(C(=O)Nc6ccc(F)cc6)CC5)cc4F)c3s2)nc1 [Compound 1]
- Mean Tumor Volume on Day 25 (mm^3) [1]: 1089.5 mm^3
- TGI (%) on Day 25 [1]: 56%
- Tumor Free Animal % on Day 25 [1]: 0%
- TGI (%) on Day 15 ([2]; Day 15): 71%
- Mean Tumor Volume on Day 18 (mm^3) ([2]; Day 18): 735.7 mm^3
- Tumor Free Animal % on Day 18 ([2]; Day 18): 8.3%
- Mean Tumor Volume on Day 26 (mm^3) [3]: 851.5 mm^3
- TGI (%) on Day 26 [3]: 37%
- Mean Tumor Volume on Day 28 (mm^3) [4]: 723.2 mm^3
- TGI (%) on Day 28 [4]: 71%
- Tumor Free Animal (%) on Day 28 [4]: 6.7%
